US20240299359A1, “PHARMACEUTICAL COMPOSITION FOR ANIMALS CONTAINING 5-HYDROXY-METHYLIMIDAZOLIDINE-2,4-DIONE COMPOUND AS ACTIVE INGREDIENT” (KYONGBO PHARM. CO., LTD., priority 2021, published 2024)
Where “and” joins values, the source holds several entries; their conditions need not be identical. Equal entries are not always repeated.

Columns and labels:
[1] = tested on: dogs with chronic renal failure; experiment: Therapeutic effect on dogs with chronic renal failure (blood creatinine); format: in vivo, dog; conditions: change before/after
Protocol: An experiment was conducted to determine the therapeutic effect and optimal dosage of 5-hydroxy-1-methylimidazolidine-2,4-dione in animal kidney disease. Dogs (5 dogs per group) diagnosed with chronic renal failure and with a blood creatinine concentration of 1.4 mg/dL or higher were treated with 5-hydroxy-methylimidazolidine-2,4-dione at […] of 0, 12.5, 25, 50, and 100 mg/kg for 2 months, and the change in blood creatinine concentration (AsCr) before and after administration was determined.

beagles [2] = experiment: 13-week repeated oral toxicity: blood coagulation test (PT, aPTT, fibrinogen); format: in vivo, beagle
Protocol: Blood Coagulation Test (PT, aPTT, Fibrinogen)
2 ml of collected blood was placed in a 3.2% sodium citrate tube, and centrifuged at 4,000 rpm for 10 minutes at 4° C., and plasma was collected for blood coagulation analysis. Prothrombin time (PT), activated partial thromboplastin time (aPTT), and fibrinogen (FIB) were analyzed using a blood coagulation measuring device (Werfen ACL ELITE Pro).

beagles [3] = experiment: 13-week repeated oral toxicity: eye test; format: in vivo, beagle; conditions: before and after administration, 13 weeks
Protocol: Eye test were conducted in the afternoon in the blood test day and blood donation day before administration (pre), the 4th week (day 29) after administration, the 8th week (day 57), and the 13th week (day 92) after administration. After observing the appearance of the left and right eyes on all the subjects, both the left and right eyes were dilated with a mydriatic agent (Mydrin®-P eye drops, ingredients: tropicamide/phenylephrine hydrochloride Taejun Pharmaceutical), and then the vitreous body and retina were tested with an ophthalmoscope (Vantage Plus LED Convertible Wired, Keeler Instruments Inc. USA).

[4] = G2 200 mg/kg, repeated administration for 13 week, female, group mean
[5] = G2 200 mg/kg, repeated administration for 13 week, female, individual animals
[6] = G2 200 mg/kg, repeated administration for 13 week, male, group mean
[7] = G2 200 mg/kg, repeated administration for 13 week, male, individual animals
[8] = G3 500 mg/kg, repeated administration for 13 week, female, group mean
[9] = G3 500 mg/kg, repeated administration for 13 week, female, individual animals
[10] = G3 500 mg/kg, repeated administration for 13 week, male, group mean
[11] = G3 500 mg/kg, repeated administration for 13 week, male, individual animals
[12] = G4 1,000 mg/kg, repeated administration for 13 week, female, group mean
[13] = G4 1,000 mg/kg, repeated administration for 13 week, female, individual animals
[14] = G4 1,000 mg/kg, repeated administration for 13 week, male, group mean
[15] = G4 1,000 mg/kg, repeated administration for 13 week, male, individual animals
[16] = before administration (day 0), 200 mg/kg group (G2), female, individual animals, 200 mg/kg
[17] = before administration (day 0), 200 mg/kg group (G2), female
[18] = before administration (day 0), 200 mg/kg group (G2), male, individual animals, 200 mg/kg
[19] = before administration (day 0), 200 mg/kg group (G2), male
[20] = before administration (day 0), 500 mg/kg group (G3), female, individual animals, 500 mg/kg
[21] = before administration (day 0), 500 mg/kg group (G3), female
[22] = before administration (day 0), 500 mg/kg group (G3), male, individual animals, 500 mg/kg
[23] = before administration (day 0), 500 mg/kg group (G3), male
[24] = before administration (day 0), 1,000 mg/kg group (G4), female, individual animals
[25] = before administration (day 0), 1,000 mg/kg group (G4), female
[26] = before administration (day 0), 1,000 mg/kg group (G4), male, individual animals
[27] = before administration (day 0), 1,000 mg/kg group (G4), male

CN1C(=O)NC(=O)C1O (stereo not drawn) [KBP-001, 5-hydroxy-1-methylimidazolidine-2,4-dione]
ΔsCr ([1]; high-dose 50 mg/kg for 2 months, 50 mg/kg): -0.02 ± 0.22 mg/dL | ΔsCr ([1]; high-dose 50 mg/kg for 2 months, listed as 5-hydroxy-1-methylimidazolidine-2,4-dione, 50 mg/kg): -0.02 ± 0.22 mg/dL | ΔsCr ([1]; highest-dose 100 mg/kg for 2 months, 100 mg/kg): 0.07 ± 0.20 mg/dL | ΔsCr ([1]; highest-dose 100 mg/kg for 2 months, listed as 5-hydroxy-1-methylimidazolidine-2,4-dione, 100 mg/kg): 0.07 ± 0.20 mg/dL | ΔsCr ([1]; low-dose 12.5 mg/kg for 2 months, 12.5 mg/kg): 0.58 ± 0.49 mg/dL | ΔsCr ([1]; low-dose 12.5 mg/kg for 2 months, listed as 5-hydroxy-1-methylimidazolidine-2,4-dione, 12.5 mg/kg): 0.58 ± 0.49 mg/dL | ΔsCr ([1]; medium-dose 25 mg/kg for 2 months, 25 mg/kg): 0.10 ± 0.34 mg/dL | ΔsCr ([1]; medium-dose 25 mg/kg for 2 months, listed as 5-hydroxy-1-methylimidazolidine-2,4-dione, 25 mg/kg): 0.10 ± 0.34 mg/dL | FIB (beagles [2]; [4]): 195.00 mg/dL | PT (beagles [2]; [4]): 7.67 s | aPTT (beagles [2]; [4]): 14.03 s | FIB (beagles [2]; [5]): 170 mg/dL and 164 mg/dL and 251 mg/dL | PT (beagles [2]; [5]): 7.6 sec (2×) and 7.8 sec | aPTT (beagles [2]; [5]): 13.8 s and 13.3 s and 15.0 s | FIB (beagles [2]; [6]): 293.00 mg/dL | PT (beagles [2]; [6]): 7.87 s | aPTT (beagles [2]; [6]): 13.13 s | FIB (beagles [2]; [7]): 299 mg/dL and 268 mg/dL and 312 mg/dL | PT (beagles [2]; [7]): 8.5 s and 8.2 s and 6.9 s | aPTT (beagles [2]; [7]): 12.7 s and 13.0 s and 13.7 s | FIB (beagles [2]; [8]): 250.00 mg/dL | PT (beagles [2]; [8]): 7.53 s | aPTT (beagles [2]; [8]): 14.37 s | FIB (beagles [2]; [9]): 212 mg/dL and 230 mg/dL and 308 mg/dL | PT (beagles [2]; [9]): 8.6 s and 6.7 s and 7.3 s | aPTT (beagles [2]; [9]): 15.2 s and 13.7 s and 14.2 s | FIB (beagles [2]; [10]): 312.67 mg/dL | PT (beagles [2]; [10]): 7.20 s | aPTT (beagles [2]; [10]): 15.17 s | FIB (beagles [2]; [11]): 347 mg/dL and 302 mg/dL and 289 mg/dL | PT (beagles [2]; [11]): 7.4 s and 7.2 s and 7.0 s | aPTT (beagles [2]; [11]): 15.3 s and 14.8 s and 15.4 s | FIB (beagles [2]; [12]): 307.00 mg/dL | PT (beagles [2]; [12]): 7.57 s | aPTT (beagles [2]; [12]): 14.03 s | FIB (beagles [2]; [13]): 442 mg/dL and 273 mg/dL and 206 mg/dL | PT (beagles [2]; [13]): 7.1 sec (2×) and 8.5 sec | aPTT (beagles [2]; [13]): 12.9 s and 13.0 s and 16.2 s | FIB (beagles [2]; [14]): 318.67 mg/dL | PT (beagles [2]; [14]): 7.53 s | aPTT (beagles [2]; [14]): 13.93 s | FIB (beagles [2]; [15]): 292 mg/dL and 386 mg/dL and 278 mg/dL | PT (beagles [2]; [15]): 7.6 s and 7.3 s and 7.7 s | aPTT (beagles [2]; [15]): 15.2 s and 12.8 s and 13.8 s | FIB (beagles [2]; [16]): 114 mg/dL and 184 mg/dL and 218 mg/dL | PT (beagles [2]; [16]): 8.5 s and 7.6 s and 7.3 s | aPTT (beagles [2]; [16]): 14.9 s and 15.3 s and 14.0 s | FIB, Mean (beagles [2]; [17]): 172.00 mg/dL | PT, Mean (beagles [2]; [17]): 7.80 s | aPTT, Mean (beagles [2]; [17]): 14.73 s | FIB (beagles [2]; [18]): 270 mg/dL and 254 mg/dL and 233 mg/dL | PT (beagles [2]; [18]): 9.2 s and 8.4 s and 7.2 s | aPTT (beagles [2]; [18]): 15.5 s and 12.1 s and 12.4 s | FIB, Mean (beagles [2]; [19]): 252.33 mg/dL | PT, Mean (beagles [2]; [19]): 8.27 s | aPTT, Mean (beagles [2]; [19]): 13.33 s | FIB (beagles [2]; [20]): 186 mg/dL and 199 mg/dL and 268 mg/dL | PT (beagles [2]; [20]): 8.8 s and 7.4 s and 7.9 s | aPTT (beagles [2]; [20]): 14.5 s and 11.9 s and 13.8 s | FIB, Mean (beagles [2]; [21]): 217.67 mg/dL | PT, Mean (beagles [2]; [21]): 8.03 s | aPTT, Mean (beagles [2]; [21]): 13.40 s | FIB (beagles [2]; [22]): 235 mg/dL and 254 mg/dL and 239 mg/dL | PT (beagles [2]; [22]): 7.6 s and 7.2 s and 7.3 s | aPTT (beagles [2]; [22]): 15.2 s and 14.6 s and 12.1 s | FIB, Mean (beagles [2]; [23]): 242.67 mg/dL | PT, Mean (beagles [2]; [23]): 7.37 s | aPTT, Mean (beagles [2]; [23]): 13.97 s | FIB (beagles [2]; [24]): 237 mg/dL and 230 mg/dL and 258 mg/dL | PT (beagles [2]; [24]): 7.6 s and 7.8 s and 8.3 s | aPTT (beagles [2]; [24]): 11.1 s and 14.2 s and 15.6 s | FIB, Mean (beagles [2]; [25]): 194.73 mg/dL | PT, Mean (beagles [2]; [25]): 6.53 s | aPTT, Mean (beagles [2]; [25]): 11.62 s | FIB (beagles [2]; [26]): 305 mg/dL and 312 mg/dL and 237 mg/dL | PT (beagles [2]; [26]): 8.3 s and 7.2 s and 8.0 s | aPTT (beagles [2]; [26]): 14.8 s and 11.3 s and 14.7 s | FIB, Mean (beagles [2]; [27]): 200.81 mg/dL | PT, Mean (beagles [2]; [27]): 6.57 s | aPTT, Mean (beagles [2]; [27]): 11.52 s | eye test findings (beagles [3]): no specific findings were observed
